In patent US8754094B2, “Methods for heat shock protein dependent cancer treatment” (The Research Foundation of State University of New York, priority 2007, dated 2014):
pIC50: −log10 of the molar value. Entries after “also recorded” stand apart in the source; their conditions may differ. Where two headings read alike, the source gives them in different places. Residues, ends and D or L forms follow the SMILES beside them. *: point of attachment. Cbz = O=C(OCc1ccccc1)*

Assays:
[1] = tested on: NCI-H929; experiment: Annexin V / PI flow cytometry apoptosis assay, NCI-H929; type: cell-based, human; conditions: for induction of apoptosis at 18 h: NCI-H929, 18 h, MAL3-101 10 μM, MG-132 0.1 μM, alone or combined
Description: Each experiment was repeated at least three times. Every experimental condition was repeated at least in triplicate wells for every experiment. For cell death assays, 10^6 MM cells were exposed to media or drug for the indicated incubation periods, washed with 1× phosphate-buffered saline (PBS), pH 7.4 (Invitrogen) and resuspended in 500 μL, binding buffer (Annexin V-PI detection kit (Immunotech/Beckman Coulter, Fullerton, Calif.), containing 1 μL, annexin V-fluorescein isothiocyanate (FITC) stock and 5 μL 20 μg/mL […] (PI) to determinate the phosphatidylserine (PS) exposure on the outer plasma membrane. After incubation for 15 minutes at room temperature in the dark, the specimens were quantified by dual-color flow cytometry, acquiring 10,000 events. Cells that were Annexin V-FITC+(with translocation of phosphatidylserine from the inner to the outer leaflet of the plasma membrane) and PI− (with intact cellular membrane) were considered as early apoptotic cells.
Apoptosis induction in control (DMSO-treated) or inhibitor treated cells was determined using an Annexin-V-FLUOS Staining Kit according to the manufacturer's instructions (Roche, Indianapolis, Ind.). Briefly, cells (1×10^5) were harvested at indicated time points after treatment, and Annexin V-fluorescein isothiocyanate (FITC) and propidium iodide (PI) were added to individual samples and incubated for 30 min in a dark environment. Fluorescence was analyzed by a FACSort flow cytometer (BD Biosciences, San Jose, Calif.) by acquiring 10,000 events per sample.

[2] = tested on: NCI-H929; experiment: cells
Description: For cell survival assays, cells were plated in 96-well culture plates (BD Biosciences, San Jose, Calif.), 100,000 cells/well with 200 μl, of culture media. The effect of the drugs on cell survival was assessed, for example, by measuring 3-(4,5-dimethylthiazol-2-yl)-5-(3-carboxymethoxyphenyl)-2-(4-sulphophenyl)-2H-tetrazolium, inner salt (MTS) (Promega, Madison, Wis.) dye absorbance of viable cells by adding 40 μL of 5 mg/mL MTS to each well for the last 4 hours of drug exposure. Additional wells containing cells only (untreated control) or medium only (background medium control) were used as controls. Absorbance at 490 nm (A490) was measured using a spectrophotometer (Dynatech Laboratories, Chantilly, Va.). Viability was estimated according to the following formula: […]
Briefly, the cellular fraction affected (Fa) was calculated based on an MTS assay after exposing cells to the drugs alone or in combination at a given dose compared to untreated cells, using the formula: Fa=100−% Viable Cells. Fa values were entered into Calcusyn software (Biosoft, Ferguson, Mo. and Cambridge, United Kingdom) to obtain CI values. CI values <1.0 indicated a synergistic effect of the drugs used in combination. For Inhibitory Concentration, or IC, calculations, dose-effect curves for MAL3-101, MG-132, 17-AAG, and their combinations were used to interpolate the median inhibitory concentration that caused 30% (IC30), 50% (IC50), and 70% (IC70) reductions in the % viable cells compared to untreated cells.
Cells (1×10^5) were plated in 96-well microtiter plates (Costar, Cambridge, Mass.) in 100 μL, of growth medium and exposed for indicated periods to various concentrations of compounds or their combinations. Control cells were cultured in DMSO. All studies were performed in triplicate and repeated at least three times independently. Survival was measured by an MTS assay (Promega, Madison, Wis.) as per the manufacturer's directions. The absorbance (A450) ratio of treated to untreated cells, after the subtraction of background absorbance, was multiplied by 100 to obtain percent cell survival. Cell death was measured by trypan blue dye exclusion in identically plated cultures.
DMSO-treated cultures were compared to drug-treated cultures by Student's t tests or by Dunnett's post-hoc test following significant repeated-measures one-way analysis of variance. All tests were two-tailed, and statistical significance was set at P≦0.05. Isobologram analysis was performed to derive combination index (CI) values based upon the Chou-Talalay method using CalcuSyn software (Biosoft, Ferguson, Mo. and Cambridge, United Kingdom) as described in L. Catley, E. Weisberg, T. Kiziltepe, Y. T. Tai, T. Hideshima, P. Neri, P. Tassone, P. Atadja, D. Chauhan, N. C. Munshi, K. C. Anderson, Aggresome induction by proteasome inhibitor Bortezomib and {alpha}-tubulin hyperacetylation by tubulin deacetylase (TDAC) inhibitor LBH589 are synergistic in myeloma cells, Blood (2006), which is incorporated herein by reference.

[3] = tested on: BiP; experiment: Levels of ER lumenal chaperone BiP in NCI-H929; type: cell-based, human; conditions: NCI-H929, data not shown
[4] = tested on: XBP-1 mRNA splicing; experiment: RT-PCR analysis of XBP-1 mRNA splicing (UPR) in NCI-H929; type: cell-based, human; conditions: for XBP-1 mRNA splicing at early time points: NCI-H929, early time points (4 h), concentrations that gave synergistic cytotoxicity
Description: Total RNA was prepared from NCI-H929 and HEK293 cells using TRIzol reagent (Invitrogen, Carlsbad, Calif.) following exposure to MAL3-101, MG-132, and 17-AAG alone and in combination at the indicated time points. Tunicamycin was used at varying concentrations.
Total RNAs were used for the first-strand synthesis with the Superscript reverse transcriptase (Invitrogen, Carlsbad, Calif.). PCR primers (5′-[…]-3′ [Seq. ID No. 1] and 5′-[…]-3′ [Seq. ID No. 2]) encompassing the missing sequences in XPB-1s were used for the PCR amplification with AmpliTaq Gold polymerase (Applied Biosystem, Foster City, Calif.) with a probe set spanning the spliced-out region. PCR products were separated by electrophoresis on a 3% agarose gel (Agarose-1000, Invitrogen) and visualized them by ethidium bromide staining to assess the degree of X-box binding protein-1 unspliced (XBP-1u, ˜280 bp) and spliced (XBP-1s, ˜265 bp) mRNA.
Unspliced (XBP-1u, 285 bp) and spliced (XBP-1s, 259 bp) XBP-1 mRNA levels of treated NCI-H929 were determined by PCR amplification of total RNA that was reverse transcribed by SuperScript Reverse Transcriptase (Invitrogen, Carlsbad, Calif.). PCR primers (5′-[…]-3′ [Seq. ID No. 1] and 5′-[…]-3′ [Seq. ID No. 2]), which flank the 26-nt intron of XBP1 mRNA, were used for PCR amplification with Ex Taq polymerase (Takara Bio, Shiga, Japan).

[5] = read-out: IC50 (reduction of % viable cells), single agent, NCI-H929, 40 h exposure, MTS assay, agent alone

| SMILES | apoptosis over time ([1]; NCI-H929, 10 μM, FACS) | induction of apoptosis at 18 h [1] | cytotoxicity compared among MM cell lines ([2]; 10 μM, NCI-H929 versus RPMI-8226 and U266) | pIC50 [2, 5] | pIC50 ([2]; read-out: IC50 as stated in the detailed description, multiple myeloma cells, rounded statement of the description) | levels of BiP [3] | XBP-1 mRNA splicing at high concentration ([4]; NCI-H929, 30 μM, after 24 h of culture) | XBP-1 mRNA splicing at early time points [4] | pIC50 ([2]; Homo sapiens, NCI-H929, 40 h, read-out: IC50 (reduction of % viable cells), single agent, NCI-H929, 40 h exposure, MTS assay, agent alone) | pIC50 ([2]; Homo sapiens, NCI-H929, 40 h, read-out: IC50 of MG-132 in the presence of MAL3-101, NCI-H929, 40 h, MTS, MAL3-101 and MG-132 at equal concentrations) |
| --- | --- | --- | --- | --- | --- | --- | --- | --- | --- | --- |
| CCCCCCN(C(=O)CCCCCN1C(=O)NC(c2ccc(-c3ccccc3)cc2)C(C(=O)OCc2ccccc2)=C1C)C(C(=O)NCCCC)c1ccc(OCC(=O)OC)c(C(=O)OC)c1 (centres unmarked) [MAL3-101] | time-dependent increase in apoptosis | neither drug alone was effective in inducing apoptosis | most sensitive; also recorded: highest level of cytotoxicity | 5.08 | 5.00 | did not change | minimal XBP-1 mRNA splicing occurred | there does not appear to be an effect; also recorded: no XBP-1 mRNA splicing was observed |  |  |
| CC(C)C[C@@H](C=O)NC(=O)[C@H](CC(C)C)NC(=O)[C@H](CC(C)C)NC(=O)OCc1ccccc1 [MG-132, reference compound] (Cbz-Leu-Leu-Leu-aldehyde) |  | neither drug alone was effective in inducing apoptosis |  | 5.77 |  | did not change |  | no XBP-1 mRNA splicing was observed | 6.00 | 8.00 |
